From ChEMBL document CHEMBL1201862, “PubChem BioAssay data set” (2004)
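Results reflect a 48-hour exposure of cells in 96-well plates to compound at five concentrations. Abbreviation: GI50, concentration required for 50% inhibition of growth.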 Activity calls are given as the source filed them. Rule as the data show it: active = GI50 up to about 1.1 µM and inactive = higher.

Assays:
Assay in all cases: NCI tumour cell line growth inhibition, 48 h
HOP-62 = test system: HOP-62
MCF7 = test system: MCF7
MDA-MB-231 = test system: MDA-MB-231
SR = test system: SR
SN12C = test system: SN12C
UACC-62 = test system: UACC-62
CAKI-1 = test system: CAKI-1
M14 = test system: M14
OVCAR-4 = test system: OVCAR-4
NCI-H460 = test system: NCI-H460
HOP-92 = test system: HOP-92
LOX IMVI = test system: LOX IMVI
TK-10 = test system: TK-10
HT-29 = test system: HT-29
EKVX = test system: EKVX
PC-3 = test system: PC-3
T47D = test system: T47D
NCI-H23 = test system: NCI-H23
U-251 = test system: U-251
UACC-257 = test system: UACC-257

| SMILES | GI50 (HOP-62) | GI50 (MCF7) | GI50 (MDA-MB-231) | GI50 (SR) | GI50 (SN12C) | GI50 (UACC-62) | GI50 (CAKI-1) | GI50 (M14) | GI50 (OVCAR-4) | GI50 (NCI-H460) | GI50 (HOP-92) | GI50 (LOX IMVI) | GI50 (TK-10) | GI50 (HT-29) | GI50 (EKVX) | GI50 (PC-3) | GI50 (T47D) | GI50 (NCI-H23) | GI50 (U-251) | GI50 (UACC-257) |
| --- | --- | --- | --- | --- | --- | --- | --- | --- | --- | --- | --- | --- | --- | --- | --- | --- | --- | --- | --- | --- |
| Clc1ccc(-c2nn3c(COc4cccc(OCc5nnc6sc(-c7ccc(Cl)cc7)nn56)c4)nnc3s2)cc1 | 56.6 µM (inactive) | 14.1 µM (inactive) | 21.2 µM (inactive) | 11.2 µM (inactive) | 12.6 µM (inactive) | 23.2 µM (inactive) | 22 µM (inactive) | 27.4 µM (inactive) | 12.9 µM (inactive) | 31 µM (inactive) | 30.1 µM (inactive) | 26.3 µM (inactive) | 36.8 µM (inactive) | 24.5 µM (inactive) | 21.3 µM (inactive) | 33.1 µM (inactive) | 17.3 µM (inactive) | 22.3 µM (inactive) | 24.3 µM (inactive) | 26.1 µM (inactive) |
| CC(=O)c1cccc2c1CC1(C2)Cc2ccc3c(c2C1=O)CCC3 (stereo not given) | 54 µM (inactive) | 9.57 µM (inactive) | 32.6 µM (inactive) | 14.8 µM (inactive) | 35.8 µM (inactive) | 78.5 µM (inactive) | 48 µM (inactive) | 46.7 µM (inactive) | 29.5 µM (inactive) | 33.3 µM (inactive) | 12.6 µM (inactive) | 27.5 µM (inactive) | 24.2 µM (inactive) | 23.1 µM (inactive) | 17.9 µM (inactive) | 32.5 µM (inactive) | 29.1 µM (inactive) | 67.8 µM (inactive) | 47.1 µM (inactive) | 14.8 µM (inactive) |
| O=[N+]([O-])c1cccc2nc3ccccc3c(NCCC[N+]3([O-])CCOCC3)c12 | 0.119 µM (active) | 0.0548 µM (active) | 0.247 µM (active) | 0.026 µM (active) | 0.171 µM (active) | 0.154 µM (active) | 2.65 µM (inactive) | 0.238 µM (active) | 0.12 µM (active) | 0.0942 µM (active) | 0.0935 µM (active) | 0.281 µM (active) | 0.697 µM (active) | 0.0859 µM (active) | 0.177 µM (active) | 0.177 µM (active) | 0.171 µM (active) | 0.0791 µM (active) | 0.209 µM (active) | 0.351 µM (active) |
| C=C1CCC(CC[C@@H]2CC[C@]3(OC2)O[C@@]2(O)CC[C@]3(C)OC2(C)C)C(C)(C)[C@H]1C/C=C1/C(=O)OC[C@@H]1O (stereo not given in full) | 6.1 µM (inactive) | 1.11 µM (active) | 1.69 µM (inactive) | 1.54 µM (inactive) | 2.36 µM (inactive) | 1.34 µM (inactive) | 5 µM (inactive) | 2.48 µM (inactive) | 0.263 µM (active) | 3.04 µM (inactive) | 2.02 µM (inactive) | 0.24 µM (active) | 6.12 µM (inactive) | 1.63 µM (inactive) | 2.96 µM (inactive) | 2.17 µM (inactive) | 0.413 µM (active) | 0.445 µM (active) | 2 µM (inactive) | 0.363 µM (active) |
| COc1ccc(CC2Cc3ccccc3CC(=O)N2)cc1OC (stereo not given) | > 100 µM (inactive) | 52 µM (inactive) | > 100 µM (inactive) | 67.9 µM (inactive) | > 100 µM (inactive) | 48.2 µM (inactive) | > 100 µM (inactive) | 54 µM (inactive) | 57 µM (inactive) | 42.8 µM (inactive) | 89.5 µM (inactive) | 32.8 µM (inactive) | > 100 µM (inactive) | > 100 µM (inactive) | 89.7 µM (inactive) | 40.3 µM (inactive) | 17.3 µM (inactive) | 87.7 µM (inactive) | > 100 µM (inactive) | 47.4 µM (inactive) |
| COc1ccc(CC2NCCc3cc(OC)c(OC)cc32)cc1Br (stereo not given) | 35.6 µM (inactive) | > 100 µM (inactive) | 22 µM (inactive) | 23.9 µM (inactive) | 36.1 µM (inactive) | 28.9 µM (inactive) | 19.7 µM (inactive) | 16.8 µM (inactive) | 38 µM (inactive) | 21.2 µM (inactive) | 15.1 µM (inactive) | 19.1 µM (inactive) | 25.6 µM (inactive) | 19.1 µM (inactive) | 35.2 µM (inactive) | 72.4 µM (inactive) | 27.9 µM (inactive) | 23 µM (inactive) | 34.4 µM (inactive) | 17.3 µM (inactive) |
| CN(C)[C@H]1CC[C@H]2[C@@H]3CCC4C[C@@H](NC(=O)NC(Cc5ccccc5)c5nccs5)CC[C@]4(C)[C@H]3CC[C@]12C (stereo not given in full) | 0.826 µM (active) | 0.703 µM (active) | 0.377 µM (active) | 1.51 µM (inactive) | 0.348 µM (active) | 1.92 µM (inactive) | 1.7 µM (inactive) | 1.69 µM (inactive) | 1.72 µM (inactive) | 1.06 µM (active) | 1.53 µM (inactive) | 1.66 µM (inactive) | 2.04 µM (inactive) | 0.33 µM (active) | 1.96 µM (inactive) | 0.509 µM (active) | 1.76 µM (inactive) | 1.77 µM (inactive) | 0.698 µM (active) | 1.87 µM (inactive) |
